Measured values from ChEMBL document CHEMBL3526061, “Glucuronidation of edaravone by human liver and kidney microsomes: biphasic kinetics and identification of UGT1A9 as the major UDP-glucuronosyltransferase isoform” (Drug Metab Dispos, 2012).

Key:
[1] = target: T1, UDP-glucuronosyltransferase 1A8 (Homo sapiens, UniProt Q9HAW9); test: Activity of human recombinant UGT1A8 expressed in insect cells assessed as enzyme mediated glucuronidation at 500 uM by LC-MS/MS method; format: ADME
T1 sequence (Q9HAW9 whole entry): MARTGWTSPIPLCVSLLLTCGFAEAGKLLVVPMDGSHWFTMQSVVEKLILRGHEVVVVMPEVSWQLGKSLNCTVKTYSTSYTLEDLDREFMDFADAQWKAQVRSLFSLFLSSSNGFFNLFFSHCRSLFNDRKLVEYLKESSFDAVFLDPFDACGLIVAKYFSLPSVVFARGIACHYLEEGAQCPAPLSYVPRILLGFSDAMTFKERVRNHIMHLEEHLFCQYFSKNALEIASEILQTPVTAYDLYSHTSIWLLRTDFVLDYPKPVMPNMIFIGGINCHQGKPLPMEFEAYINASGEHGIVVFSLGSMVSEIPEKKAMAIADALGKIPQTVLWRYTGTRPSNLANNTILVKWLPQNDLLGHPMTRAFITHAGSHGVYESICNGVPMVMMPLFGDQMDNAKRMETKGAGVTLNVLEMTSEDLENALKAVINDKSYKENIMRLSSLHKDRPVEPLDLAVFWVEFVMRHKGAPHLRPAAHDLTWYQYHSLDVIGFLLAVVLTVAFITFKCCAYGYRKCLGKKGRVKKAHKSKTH

[2] = target: T2, UDP-glucuronosyltransferase 1A9 (Homo sapiens, UniProt O60656); test: Activity of human recombinant UGT1A9 expressed in insect cells assessed as enzyme mediated glucuronidation at 500 uM by LC-MS/MS method; format: ADME
T2 sequence (O60656 whole entry): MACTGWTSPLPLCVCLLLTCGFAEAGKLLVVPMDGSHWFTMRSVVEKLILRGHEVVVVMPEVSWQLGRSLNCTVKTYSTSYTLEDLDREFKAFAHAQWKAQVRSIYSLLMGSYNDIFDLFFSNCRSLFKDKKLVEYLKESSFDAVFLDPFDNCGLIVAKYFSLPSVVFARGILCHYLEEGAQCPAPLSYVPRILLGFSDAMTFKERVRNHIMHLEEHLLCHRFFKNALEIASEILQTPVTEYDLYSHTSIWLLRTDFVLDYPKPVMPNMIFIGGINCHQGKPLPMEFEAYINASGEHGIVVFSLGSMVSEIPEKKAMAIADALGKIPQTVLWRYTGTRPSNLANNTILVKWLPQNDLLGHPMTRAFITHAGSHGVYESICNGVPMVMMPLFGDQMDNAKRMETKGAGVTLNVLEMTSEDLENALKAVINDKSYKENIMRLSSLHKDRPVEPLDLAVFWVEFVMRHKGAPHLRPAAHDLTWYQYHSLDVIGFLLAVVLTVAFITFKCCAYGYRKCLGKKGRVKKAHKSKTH

CC1=NN(c2ccccc2)C(=O)C1 [EDARAVONE] was tested, and the Drug metabolism [1] was “metabolite_detected” and the Drug metabolism [2] was “metabolite_detected”.
